What was measured:
[1] = biological target: T1, human AD brain homogenate (ADH) (Homo sapiens, UniProt P05067); assay: Competition binding assay with a tritiated amyloid ligand using brain homogenate from AD patients; conditions: competition with 10 nM tritiated amyloid ligand, 100 μg/mL AD frontal cortex homogenate, PBS 0.1% BSA, 3 h, room temperature
T1 construct: from tissue; host or cells: frontal cortex (grey and white matter) of AD patients, homogenised in PBS
Protocol: A competition assay with a tritiated amyloid ligand was performed in 96-well plates (Greiner bio-one; Cat. 651201; Lot. 06260130) using brain homogenate from AD patients. Homogenates were prepared by homogenizing (Ultra-Turrax, setting 2, 30 s, 24000 rpm) dissected frontal cortex containing grey matter and white matter from AD patients in phosphate buffered saline (PBS, pH 7.4). The homogenate with a concentration of 100 mg wet tissue/mL was divided into aliquots of 300 μL and stored at −80° C. Varying concentrations of the unlabeled test substances were incubated with 100 μg/mL homogenate and 10 nM of the tritiated ligand in PBS, 0.1% BSA (final volume 200 μL) for 3 h at room temperature. Subsequently the binding mixture was filtered through Whatman GF/B filters (wetted with PBS, 0.1% BSA) using a Filtermate 196 harvester (Packard). Filters were then washed twice with PBS, 0.1% BSA and 40 μL scintillator was added to each well before the bound radioactivity was measured in a TopCount devise (Perkin Elmer). Non-specific binding was assessed by adding an excess of the reference ligand to the reaction mixture. Finally IC50 values were calculated with the help of appropriate analysis software.

[2] = biological target: T2, amyloid beta plaques (Homo sapiens, UniProt P05067); assay: Autoradiographical analysis of binding to human brain sections; conditions: cortex sections of AD patients; controls from HC and FTD patients; blocking with excess of cold compound
T2 construct: Alzheimer's disease patients (AD) with amyloid beta plaques; from tissue; host or cells: fresh frozen and paraffin embedded frontal lobe sections of AD patients
T2 sequence (P05067 672-713 limits assumed): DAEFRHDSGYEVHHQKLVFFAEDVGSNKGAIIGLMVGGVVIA
Protocol: FIG. 4 Autoradiographical analysis of binding of compound 28 to brain sections from cortex of Alzheimer's disease patients (AD) with amyloid beta plaques. Control sections without amyloid beta pathology stem from healthy volunteers (HC) and fronto-temporal dementia (FTD) patients. Blocking of specific signals was performed with an excess of cold compound. […] Fresh frozen as well as paraffin embedded sections of the frontal lobe from Alzheimer's dementia patients, frontotemporal dementia patients and age matched controls were used for the study. Frozen sections, sliced at 18 μm thickness on a cryostate (Leica, Germany) and paraffin sections, sliced on a sliding microtom (Leica) at a thickness of 6 μm, were mounted onto glass slides (Superfrost Plus, Fa. Menzel, Braunschweig Germany). Frozen sections were allowed to adhere to the slides for several nights at −20° C. The paraffin sections were deparaffinized using routine histological methods. For binding studies sections were incubated with the labeled test compound at 10-20 Bq/μL diluted in 25 mM Hepes buffer, pH 7.4, 0.1% BSA (200-300 μL/slide) for 1.5 h. in a humidified chamber. For blocking experiments an excess of the unlabeled test substance was added to the incubation mixture. […] The air-dried sections were exposed to imaging plates and signals were detected by a phosphoimager device (Fuji BAS5000).

[3] = Biodistribution (brain uptake and wash-out) in mice; format: in vivo, male NMRI mice
Protocol: Biodistribution and excretion studies were performed in male NMRI mice (body weight app. 30 g; 3 animals per time point). The animals were kept under normal laboratory conditions at a temperature of 22±2° C. and a dark/light rhythm of 12 h. Food and water were provided ad libitium. During an acclimation period of at least 3 days before the beginning of the study animals were clinically examined to ascertain the absence of abnormal clinical signs.
At 2 min, 5 min, 30 min, 1 h, 4 h post intravenous injection via the tail vein of ca. 185 kBq of the test compound, urine and feces were quantitatively collected. At the same time points, animals were sacrificed by decapitation under isoflurane anaesthesia and organs and tissues of interest were removed for the determination of radioactivity using a gamma-counter. For analysis the decay corrected percentage of the injected dose per tissue weight (% ID/g±standard deviation) was calculated.

T1 sequence (P05067 672-713 limits assumed): as above

Row | Compound | IC50 [1] [nM] | also measured
1 | CN(C)c1ccc(NC=CC(=O)c2ccc(F)cc2)cc1 (mixture of isomers) [Compound 6, (E/Z)-3-{[4-(Dimethylamino)phenyl]amino}-1-(4-fluorophenyl)prop-2-en-1-one] | 5 | –
2 | O=C(C=CNc1ccc(OCF)cc1)c1ccccc1 (mixture of isomers) [Compound 1, (E/Z)-3-{[4-(Fluoromethoxy)phenyl]amino}-1-phenylprop-2-en-1-one] | 9 | –
3 | COc1ccc(NC=CC(=O)c2ccc(F)nc2)cc1 (mixture of isomers) [Compound 11, (E/Z)-1-(6-Fluoropyridin-3-yl)-3-[(4-methoxyphenyl)amino]prop-2-en-1-one] | 28 | –
4 | O=C(C=CNc1ccc(OCCF)cc1)c1ccccc1 (mixture of isomers) [Compound 2, (E/Z)-3-{[4-(2-Fluoroethoxy)phenyl]amino}-1-phenylprop-2-en-1-one] | 17 | –
5 | CN(C)c1ccc(NC=CC(=O)c2ccc([18F])nc2)cc1 (mixture of isomers) [Compound 28, (E/Z)-3-{[4-(Dimethylamino)phenyl]amino}-1-(6-[^18F]-fluoropyridin-3-yl)prop-2-en-1-one] | – | Autoradiographic binding to brain sections (in words) [2]: plaque-specific signals; Brain uptake and elimination of the radioactive background signal from the brain (in words) ([3]; healthy mouse brain, devoid of plaques): advantageous rapid elimination of the radioactive background signal from the brain; Brain uptake at 2 min ([3]; mice, 2 min after intravenous injection, [18F] signal, healthy brain): 7.66 % ID/g; Brain uptake at 30 min ([3]; mice, 30 min after intravenous injection, [18F] signal, healthy brain): 0.78 % ID/g; Brain wash-out ratio [% ID/g at 2 min]/[% ID/g at 30 min] ([3]; mice, intravenous injection, healthy brain): 9.8
6 | O=C(C=CNc1ccc(F)c(Br)c1)c1ccccc1 (mixture of isomers) [Compound 13, (E/Z)-3-[(3-Bromo-4-fluorophenyl)amino]-1-phenylprop-2-en-1-one] | 46 | –

Now from value to compound, other results behind:

Row | IC50 [1] [nM] | Compound | also measured
7 | 140 | O=C(C=CNc1ccc(OCCF)cc1)c1ccc(-c2ccccc2)cc1 (mixture of isomers) [Compound 14, (E/Z)-1-Biphenyl-4-yl-3-{[4-(2-fluoroethoxy)phenyl]amino}prop-2-en-1-one] | –
8 | 13 | O=C(C=CNc1ccc(OCCF)cc1)c1ccc(Br)cc1 (mixture of isomers) [Compound 3, (E/Z)-1-(4-Bromophenyl)-3-{[4-(2-fluoroethoxy)phenyl]amino}prop-2-en-1-one] | –
9 | 400 | COc1ccc(NC=CC(=O)c2ccc(F)cc2)cc1 (mixture of isomers) [Compound 5, (E/Z)-1-(4-Fluorophenyl)-3-[(4-methoxyphenyl)amino]prop-2-en-1-one] | –
10 | 18 | O=C(/C=C\Nc1ccc(OCCCF)cc1)c1ccccc1 [Compound 4, (Z)-3-{[4-(3-Fluoropropoxy)phenyl]amino}-1-phenylprop-2-en-1-one] | –
11 | 26 | O=C(C=CNc1ccc(F)cc1)c1ccccc1 (mixture of isomers) [Compound 12, (E/Z)-3-[(4-Fluorophenyl)amino]-1-phenylprop-2-en-1-one] | –
12 | 258 | CN(C)c1ccc(NC=CC(=O)c2ccc(F)c(C(F)(F)F)c2)cc1 (mixture of isomers) [Compound 7, (E/Z)-3-{[4-(Dimethylamino)phenyl]amino}-1-[4-fluoro-3-(trifluoromethyl)phenyl]prop-2-en-1-one] | –
13 | 4 | CN(C)c1ccc(NC=CC(=O)c2ccc(F)nc2)cc1 (mixture of isomers) [Compound 10, (E/Z)-3-{[4-(Dimethylamino)phenyl]amino}-1-(6-fluoropyridin-3-yl)prop-2-en-1-one] | –
